Reference: PubChem BioAssay AID2060610 (Molecular Pharmacology Branch, DTP, NCI, 2025)
Where “and” joins values, the source holds several entries; their conditions need not be identical. Identical values can stand only once.

System: 616215-338-R-J1-PDC complex spheroids, viability % test/control
Experiment: Anticancer human tumor 616215-338-R-J1-PDC patient-derived colon adenocarcinoma cell line growth inhibition [CLK]
Settings: for viability, T/C: stronger effect = lower value
Outline: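 Multi-cell-type spheroids combined patient-derived tumor cells with HUVEC endothelial cells and human mesenchymal stem cells. Paired agents were dosed in half-log steps down from about clinical Cmax, or from 10 microM where Cmax was unknown.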

[1] = curve of first compound, second compound 0.0316 µM
[2] = curve of first compound, second compound 0.1 µM
[3] = curve of first compound, second compound 0.316 µM
[4] = curve of first compound, second compound 1 µM
[5] = curve of first compound, second compound 3.16 µM
[6] = curve of first compound, second compound 10 µM
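Further: spheroids exposed to agents for 7 days.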
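Wherever viability, T/C is given: 100% = DMSO vehicle wells.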

CC(C)CC(NC(=O)C(Cc1ccccc1)NC(=O)c1cnccn1)B(O)O (stereo unspecified) + CNC(=O)c1ccc(Nc2nc(OC3CCCC3)c3c(-c4ccc5nc(C)oc5c4)c[nH]c3n2)c(OC)c1 was tested, and the IC50 [1] was 5.4 nM, the IC50 [2] was 4.28 nM and the IC50 [3] was under 0.949 nM. For the same compound, the IC50 [4] was under 0.949 nM, the IC50 [5] was under 0.949 nM and the IC50 [6] was under 0.949 nM. The viability, T/C (second compound 0.0316 µM, first compound 0.000949 µM) was 93.4%, the viability, T/C (second compound 0.0316 µM, first compound 0.003 µM) was 110% and the viability, T/C (second compound 0.0316 µM, first compound 0.00949 µM) was 0.37%. It also gave a viability, T/C (second compound 0.0316 µM, first compound 0.03 µM) of 0.24%, a viability, T/C (second compound 0.0316 µM, first compound 0.0949 µM) of 0.24% and a viability, T/C (second compound 0.0316 µM, first compound 0.3 µM) of 1.23%. For the same compound, the viability, T/C (second compound 0.1 µM, first compound 0.000949 µM) was 55.6%, the viability, T/C (second compound 0.1 µM, first compound 0.003 µM) was 88.9% and the viability, T/C (second compound 0.1 µM, first compound 0.00949 µM) was 0.21%. For the same compound, the viability, T/C (second compound 0.1 µM, first compound 0.03 µM) was 0.22%, the viability, T/C (second compound 0.1 µM, first compound 0.0949 µM) was 0.18% and the viability, T/C (second compound 0.1 µM, first compound 0.3 µM) was 0.5%. The viability, T/C (second compound 0.316 µM, first compound 0.000949 µM) was 45.9%, the viability, T/C (second compound 0.316 µM, first compound 0.003 µM) was 38.4% and the viability, T/C (second compound 0.316 µM, first compound 0.00949 µM) was 0.2%. It also gave a viability, T/C (second compound 0.316 µM, first compound 0.03 µM) of 0.18%, a viability, T/C (second compound 0.316 µM, first compound 0.0949 µM) of 0.15% and a viability, T/C (second compound 0.316 µM, first compound 0.3 µM) of 0.86%. It also gave a viability, T/C (second compound 1 µM, first compound 0.000949 µM) of 45.3%, a viability, T/C (second compound 1 µM, first compound 0.003 µM) of 29.9% and a viability, T/C (second compound 1 µM, first compound 0.00949 µM) of 0.19%. It also gave a viability, T/C (second compound 1 µM, first compound 0.03 µM) of 0.15%, a viability, T/C (second compound 1 µM, first compound 0.0949 µM) of 1.71% and a viability, T/C (second compound 1 µM, first compound 0.3 µM) of 1.14%. For the same compound, the viability, T/C (second compound 3.16 µM, first compound 0.000949 µM) was 45.7%, the viability, T/C (second compound 3.16 µM, first compound 0.003 µM) was 18.6% and the viability, T/C (second compound 3.16 µM, first compound 0.00949 µM) was 0.16%. It also gave a viability, T/C (second compound 3.16 µM, first compound 0.03 µM) of 0.16%, a viability, T/C (second compound 3.16 µM, first compound 0.0949 µM) of 0.18% and a viability, T/C (second compound 3.16 µM, first compound 0.3 µM) of 1.5%. It also gave a viability, T/C (second compound 10 µM, first compound 0.000949 µM) of 45.9%, a viability, T/C (second compound 10 µM, first compound 0.003 µM) of 19.5% and a viability, T/C (second compound 10 µM, first compound 0.00949 µM) of 0.22%. It also gave a viability, T/C (second compound 10 µM, first compound 0.03 µM) of 0.18%, a viability, T/C (second compound 10 µM, first compound 0.0949 µM) of 1.53% and a viability, T/C (second compound 10 µM, first compound 0.3 µM) of 2.83%.

Compound COc1ccc([C@@H](O)c2cc(-c3ncnc4cc(N5CCOCC5)ccc34)c(F)cc2Cl)nn1 + CNC(=O)c1ccc(Nc2nc(OC3CCCC3)c3c(-c4ccc5nc(C)oc5c4)c[nH]c3n2)c(OC)c1 has an IC50 [1] of over 10000 nM, an IC50 [2] of under 31.6 nM and an IC50 [3] of under 31.6 nM. The IC50 [4] was under 31.6 nM, the IC50 [5] was under 31.6 nM and the IC50 [6] was under 31.6 nM. It also gave a viability, T/C (second compound 0.0316 µM, first compound 0.0316 µM) of 90.8%, a viability, T/C (second compound 0.0316 µM, first compound 0.1 µM) of 103% and a viability, T/C (second compound 0.0316 µM, first compound 0.316 µM) of 99.1%. For the same compound, the viability, T/C (second compound 0.0316 µM, first compound 1 µM) was 100%, the viability, T/C (second compound 0.0316 µM, first compound 3.16 µM) was 114% and the viability, T/C (second compound 0.0316 µM, first compound 10 µM) was 72.5%. For the same compound, the viability, T/C (second compound 0.1 µM, first compound 0.0316 µM) was 45.1%, the viability, T/C (second compound 0.1 µM, first compound 0.1 µM) was 45.4% and the viability, T/C (second compound 0.1 µM, first compound 0.316 µM) was 43.4%. It also gave a viability, T/C (second compound 0.1 µM, first compound 1 µM) of 45.3%, a viability, T/C (second compound 0.1 µM, first compound 3.16 µM) of 43.2% and a viability, T/C (second compound 0.1 µM, first compound 10 µM) of 28.8%. It also gave a viability, T/C (second compound 0.316 µM, first compound 0.0316 µM) of 46.3%, a viability, T/C (second compound 0.316 µM, first compound 0.1 µM) of 43.5% and a viability, T/C (second compound 0.316 µM, first compound 0.316 µM) of 39.4%. The viability, T/C (second compound 0.316 µM, first compound 1 µM) was 37.9%, the viability, T/C (second compound 0.316 µM, first compound 3.16 µM) was 32.4% and the viability, T/C (second compound 0.316 µM, first compound 10 µM) was 28%. It also gave a viability, T/C (second compound 1 µM, first compound 0.0316 µM) of 40.1%, a viability, T/C (second compound 1 µM, first compound 0.1 µM) of 39.9% and a viability, T/C (second compound 1 µM, first compound 0.316 µM) of 38.9%. The viability, T/C (second compound 1 µM, first compound 1 µM) was 38.8%, the viability, T/C (second compound 1 µM, first compound 3.16 µM) was 32.2% and the viability, T/C (second compound 1 µM, first compound 10 µM) was 22.6%. For the same compound, the viability, T/C (second compound 3.16 µM, first compound 0.0316 µM) was 49.7%, the viability, T/C (second compound 3.16 µM, first compound 0.1 µM) was 43.7% and the viability, T/C (second compound 3.16 µM, first compound 0.316 µM) was 41%. For the same compound, the viability, T/C (second compound 3.16 µM, first compound 1 µM) was 32.6%, the viability, T/C (second compound 3.16 µM, first compound 3.16 µM) was 30.6% and the viability, T/C (second compound 3.16 µM, first compound 10 µM) was 20.8%. For the same compound, the viability, T/C (second compound 10 µM, first compound 0.0316 µM) was 49.1%, the viability, T/C (second compound 10 µM, first compound 0.1 µM) was 41.5% and the viability, T/C (second compound 10 µM, first compound 0.316 µM) was 38.8%. The viability, T/C (second compound 10 µM, first compound 1 µM) was 37.1%, the viability, T/C (second compound 10 µM, first compound 3.16 µM) was 27.2% and the viability, T/C (second compound 10 µM, first compound 10 µM) was 19.1%.

With C#Cc1c(F)ccc2cc(O)cc(-c3ncc4c(N5CC6CCC(C5)N6)nc(OCC56CCCN5CC(F)C6)nc4c3F)c12 (stereo unspecified) the viability, T/C (compound 0.0316 µM) was 95.4% and 102%, the viability, T/C (compound 0.1 µM) was 96.2% and 91.8% and the viability, T/C (compound 0.316 µM) was 100% and 104%. The viability, T/C (compound 1 µM) was 119% and 114%, the viability, T/C (compound 3.16 µM) was 133% and 98.2% and the viability, T/C (compound 10 µM) was 83.3% and 65.1%. For the same compound, the IC50 (curve of compound) was over 10000 nM.
